Source: ChEMBL document CHEMBL2331218, “Synthesis, biological evaluation, 3D-QSAR studies of novel aryl-2H-pyrazole derivatives as telomerase inhibitors” (Bioorg Med Chem Lett, 2013)

Tests used:
SGC-7901 = assay: Anticancer activity against human SGC7901 cells assessed as cell survival measured after 48 hrs by MTT assay; type: functional, cell-based; conditions: SGC-7901, 48 h
[1] = biological target: Telomerase reverse transcriptase (Homo sapiens, UniProt O14746); assay: Inhibition of telomerase in human SGC7901 cells by TRAP assay; type: cell-based, SGC-7901
B16-F10 = assay: Anticancer activity against mouse B16F10 cells assessed as cell survival measured after 48 hrs by MTT assay; type: functional, cell-based; conditions: B16-F10, 48 h

Telomerase reverse transcriptase, sequence (O14746 whole entry): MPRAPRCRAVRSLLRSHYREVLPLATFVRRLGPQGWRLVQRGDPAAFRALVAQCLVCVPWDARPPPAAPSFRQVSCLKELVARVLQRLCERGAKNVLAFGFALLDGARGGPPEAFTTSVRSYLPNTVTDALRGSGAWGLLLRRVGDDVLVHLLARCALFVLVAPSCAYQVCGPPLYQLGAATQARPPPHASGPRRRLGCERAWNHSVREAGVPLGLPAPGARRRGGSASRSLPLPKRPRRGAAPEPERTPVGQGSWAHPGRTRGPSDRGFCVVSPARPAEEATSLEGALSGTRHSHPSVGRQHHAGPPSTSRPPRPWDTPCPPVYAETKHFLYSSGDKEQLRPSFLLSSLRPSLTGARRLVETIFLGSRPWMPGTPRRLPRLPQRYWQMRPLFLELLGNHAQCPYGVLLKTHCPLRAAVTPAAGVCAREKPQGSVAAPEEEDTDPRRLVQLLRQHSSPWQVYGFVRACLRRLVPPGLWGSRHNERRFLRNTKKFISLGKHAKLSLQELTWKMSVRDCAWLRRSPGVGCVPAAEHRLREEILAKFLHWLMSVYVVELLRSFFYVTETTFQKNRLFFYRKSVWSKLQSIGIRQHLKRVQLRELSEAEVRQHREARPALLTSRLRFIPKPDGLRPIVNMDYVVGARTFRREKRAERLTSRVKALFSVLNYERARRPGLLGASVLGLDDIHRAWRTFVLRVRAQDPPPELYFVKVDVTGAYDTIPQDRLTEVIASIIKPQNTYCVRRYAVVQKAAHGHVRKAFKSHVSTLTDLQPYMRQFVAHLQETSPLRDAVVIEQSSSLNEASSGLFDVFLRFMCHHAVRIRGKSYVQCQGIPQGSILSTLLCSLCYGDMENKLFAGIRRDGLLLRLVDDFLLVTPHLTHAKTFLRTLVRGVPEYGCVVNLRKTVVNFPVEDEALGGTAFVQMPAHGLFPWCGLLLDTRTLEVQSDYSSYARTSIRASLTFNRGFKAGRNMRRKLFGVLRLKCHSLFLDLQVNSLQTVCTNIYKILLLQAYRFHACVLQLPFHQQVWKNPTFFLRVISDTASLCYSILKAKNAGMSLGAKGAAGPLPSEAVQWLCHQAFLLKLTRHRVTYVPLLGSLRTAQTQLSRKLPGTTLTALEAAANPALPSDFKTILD

SMILES	IC50 (SGC-7901)	IC50 [1]	IC50 (B16-F10)
CC(=O)N1N=C(c2ccc(C)cc2)CC1c1ccc2c(c1)OCO2 (stereo not given)	21.2 µM	1.3 µM	12.8 µM
CC(=O)N1N=C(c2ccccc2)CC1c1ccc2c(c1)OCO2 (stereo not given)	25.7 µM	3.4 µM	14 µM
CC(=O)N1N=C(c2ccc(Br)cc2)CC1c1ccc2c(c1)OCO2 (stereo not given)	30.1 µM	6.2 µM	18.9 µM
CC(=O)N1N=C(c2ccc(F)cc2)CC1c1ccc2c(c1)OCCCO2 (stereo not given)		83.6 µM	
CC(=O)N1N=C(c2ccc(Cl)cc2)CC1c1ccc2c(c1)OCCCO2 (stereo not given)		82.6 µM	
CC(=O)N1N=C(c2ccc(Br)cc2)CC1c1ccc2c(c1)OCCCO2 (stereo not given)		76.4 µM	97 µM
CC(=O)N1N=C(c2ccc(C)cc2)CC1c1ccc2c(c1)OCCCO2 (stereo not given)		54.9 µM	89.7 µM
COc1ccc(C2=NN(C(C)=O)C(c3ccc4c(c3)OCCCO4)C2)cc1 (stereo not given)	94 µM	46.7 µM	85.3 µM
CC(=O)N1N=C(c2ccc([N+](=O)[O-])cc2)CC1c1ccc2c(c1)OCCCO2 (stereo not given)		93.2 µM	
CC(=O)N1N=C(c2ccc(F)cc2)CC1c1ccc2c(c1)OCO2 (stereo not given)	40.9 µM	7.3 µM	22.2 µM
CC(=O)N1N=C(c2ccc(Cl)cc2)CC1c1ccc2c(c1)OCO2 (stereo not given)	35.3 µM	6.7 µM	20.8 µM
COc1ccc(C2=NN(C(C)=O)C(c3ccc4c(c3)OCO4)C2)cc1 (stereo not given)	18.1 µM	0.9 µM	5.34 µM
CC(=O)N1N=C(c2ccc([N+](=O)[O-])cc2)CC1c1ccc2c(c1)OCO2 (stereo not given)	41.9 µM	8.7 µM	24.7 µM
CC(=O)N1N=C(c2ccccc2)CC1c1ccc2c(c1)OCCO2 (stereo not given)	50.2 µM	18.5 µM	39.5 µM
CC(=O)N1N=C(c2ccc(F)cc2)CC1c1ccc2c(c1)OCCO2 (stereo not given)	68.4 µM	25.7 µM	53.1 µM
CC(=O)N1N=C(c2ccc(Cl)cc2)CC1c1ccc2c(c1)OCCO2 (stereo not given)	59.5 µM	23.8 µM	47.3 µM
CC(=O)N1N=C(c2ccc(Br)cc2)CC1c1ccc2c(c1)OCCO2 (stereo not given)	52.3 µM	22.9 µM	44.1 µM
CC(=O)N1N=C(c2ccc(C)cc2)CC1c1ccc2c(c1)OCCO2 (stereo not given)	49.2 µM	13.4 µM	37.9 µM
COc1ccc(C2=NN(C(C)=O)C(c3ccc4c(c3)OCCO4)C2)cc1 (stereo not given)	45.8 µM	10.6 µM	31.7 µM
CC(=O)N1N=C(c2ccc([N+](=O)[O-])cc2)CC1c1ccc2c(c1)OCCO2 (stereo not given)	70 µM	37.4 µM	57.8 µM
CC(=O)N1N=C(c2ccccc2)CC1c1ccc2c(c1)OCCCO2 (stereo not given)		68.3 µM	
O=c1[nH]cc(F)c(=O)[nH]1 [FLUOROURACIL]	46.4 µM		21.4 µM
